Assay results reported in ChEMBL document CHEMBL4507327 (2021).

Key:
Activin receptor type-1 = Activin receptor type-1 (Homo sapiens, UniProt Q04771); assay: ALK2(ACV1LGF1) Takeda global kinase panel
[1] = target: Ribosomal protein S6 kinase alpha-2 (Homo sapiens, UniProt Q15349); assay: RSK3(R6A1CGE1) Takeda global kinase panel
[2] = target: Mitogen-activated protein kinase kinase kinase 12 (Homo sapiens, UniProt Q12852); assay: DLK(M312CGY1) Takeda global kinase panel
[3] = target: Myosin light chain kinase (Homo sapiens, UniProt Q32MK0); assay: caMLCK(MYL3LGF1) Takeda global kinase panel
[4] = target: Homeodomain-interacting protein kinase 4 (Homo sapiens, UniProt Q8NE63); assay: HIPK4(HIP4LHY1) Takeda global kinase panel
Homeodomain-interacting protein kinase 4, sequence (Q8NE63 whole entry): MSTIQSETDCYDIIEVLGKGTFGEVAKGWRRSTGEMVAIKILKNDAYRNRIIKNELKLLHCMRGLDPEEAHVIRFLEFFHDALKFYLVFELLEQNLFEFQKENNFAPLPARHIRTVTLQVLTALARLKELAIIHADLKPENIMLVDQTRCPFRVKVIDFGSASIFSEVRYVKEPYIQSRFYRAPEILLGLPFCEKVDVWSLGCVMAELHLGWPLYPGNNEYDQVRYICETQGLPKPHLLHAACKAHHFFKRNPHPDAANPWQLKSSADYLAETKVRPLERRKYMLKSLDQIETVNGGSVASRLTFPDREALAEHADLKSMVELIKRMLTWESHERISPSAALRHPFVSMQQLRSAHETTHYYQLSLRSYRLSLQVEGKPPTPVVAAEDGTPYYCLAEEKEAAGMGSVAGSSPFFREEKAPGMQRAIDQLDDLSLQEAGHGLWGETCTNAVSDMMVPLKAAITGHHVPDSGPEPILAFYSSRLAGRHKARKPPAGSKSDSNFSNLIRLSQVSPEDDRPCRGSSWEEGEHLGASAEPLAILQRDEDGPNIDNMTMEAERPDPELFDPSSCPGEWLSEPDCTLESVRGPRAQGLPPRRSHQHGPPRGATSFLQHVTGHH

[5] = target: Maternal embryonic leucine zipper kinase (Homo sapiens, UniProt Q14680); assay: MELK(MELKLGF1) Takeda global kinase panel
[6] = target: Peripheral plasma membrane protein CASK (Homo sapiens, UniProt O14936); assay: CASK(CASKLGY1) Takeda global kinase panel
[7] = target: Cytoplasmic tyrosine-protein kinase BMX (Homo sapiens, UniProt P51813); assay: Etk [BMX(BMX1CGF1)] Takeda global kinase panel
[8] = target: Histamine H3 receptor (Homo sapiens) (UniProt Q9Y5N1); conditions: Compound concentration 10.0 uM
[9] = target: Mitogen-activated protein kinase kinase kinase 20 (Homo sapiens, UniProt Q9NYL2); assay: ZAK(ZAK1LGY1) Takeda global kinase panel
[10] = target: Serine/threonine-protein kinase ICK (Homo sapiens, UniProt Q9UPZ9); assay: ICK(ICK1LGP1) Takeda global kinase panel
[11] = target: Fibroblast growth factor receptor 4 (Homo sapiens, UniProt P22455); assay: FGFR4(FGF4LGF1) Takeda global kinase panel
Rattus norvegicus = species: Rattus norvegicus; assay: Inhibition of Thyroid Hormone at 10 µM in the Eurofins-Panlabs radioligand binding assay (Eurofins_assay_285900); type: protein assay; conditions: Compound concentration 10.0 uM
[12] = target: Ribosomal protein S6 kinase alpha-1 (Homo sapiens, UniProt Q15418); assay: RSK1 [p90RSK(R6A2CGE1)] Takeda global kinase panel
Ribosomal protein S6 kinase alpha-1, sequence (Q15418 whole entry): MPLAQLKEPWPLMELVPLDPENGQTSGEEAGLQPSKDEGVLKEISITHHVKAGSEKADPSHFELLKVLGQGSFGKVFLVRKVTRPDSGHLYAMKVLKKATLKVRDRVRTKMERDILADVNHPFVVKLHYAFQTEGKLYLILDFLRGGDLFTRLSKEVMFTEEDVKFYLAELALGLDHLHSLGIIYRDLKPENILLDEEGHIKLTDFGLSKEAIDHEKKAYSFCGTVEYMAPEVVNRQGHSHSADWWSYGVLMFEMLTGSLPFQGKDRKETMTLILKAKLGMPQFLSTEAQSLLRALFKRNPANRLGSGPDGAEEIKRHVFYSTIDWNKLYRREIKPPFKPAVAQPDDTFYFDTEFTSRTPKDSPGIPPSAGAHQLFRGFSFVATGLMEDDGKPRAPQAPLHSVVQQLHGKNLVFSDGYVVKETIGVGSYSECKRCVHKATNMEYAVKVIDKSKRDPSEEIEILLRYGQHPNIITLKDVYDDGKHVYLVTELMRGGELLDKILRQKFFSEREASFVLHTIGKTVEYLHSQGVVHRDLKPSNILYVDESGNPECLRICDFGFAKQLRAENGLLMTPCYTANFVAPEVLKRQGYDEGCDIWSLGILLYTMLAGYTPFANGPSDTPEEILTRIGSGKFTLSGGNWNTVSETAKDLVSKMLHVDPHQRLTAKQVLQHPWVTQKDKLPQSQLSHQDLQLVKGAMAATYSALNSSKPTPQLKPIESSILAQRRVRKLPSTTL

[13] = target: Interleukin-1 receptor-associated kinase 3 (Homo sapiens, UniProt Q9Y616); assay: IRAK3(IRK3PFE1) Takeda global kinase panel
Interleukin-1 receptor-associated kinase 3, sequence (Q9Y616 whole entry): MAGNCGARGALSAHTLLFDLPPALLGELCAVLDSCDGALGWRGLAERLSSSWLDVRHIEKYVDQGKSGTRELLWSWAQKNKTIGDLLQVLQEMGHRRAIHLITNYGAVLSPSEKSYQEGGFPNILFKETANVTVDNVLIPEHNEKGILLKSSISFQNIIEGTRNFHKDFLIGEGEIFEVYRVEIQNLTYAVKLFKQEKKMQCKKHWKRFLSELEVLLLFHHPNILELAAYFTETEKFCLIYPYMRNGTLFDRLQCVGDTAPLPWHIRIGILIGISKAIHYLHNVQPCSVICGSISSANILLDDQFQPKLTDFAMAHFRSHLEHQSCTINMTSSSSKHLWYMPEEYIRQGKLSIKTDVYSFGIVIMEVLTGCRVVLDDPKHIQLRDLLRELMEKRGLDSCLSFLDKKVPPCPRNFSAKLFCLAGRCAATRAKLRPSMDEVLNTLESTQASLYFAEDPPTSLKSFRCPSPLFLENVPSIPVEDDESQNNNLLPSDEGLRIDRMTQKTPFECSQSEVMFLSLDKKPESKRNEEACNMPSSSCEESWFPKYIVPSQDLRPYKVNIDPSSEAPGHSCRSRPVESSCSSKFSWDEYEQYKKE

[14] = target: Serine/threonine-protein kinase Sgk2 (Homo sapiens, UniProt Q9HBY8); assay: SGK2(SGK2LGE5) Takeda global kinase panel
[15] = target: Insulin receptor-related protein (Homo sapiens, UniProt P14616); assay: IRR(INSSLGF1) Takeda global kinase panel
[16] = target: Mitogen-activated protein kinase 3 (Homo sapiens, UniProt P27361); assay: ERK1(MAP3LGY1) Takeda global kinase panel
Homo sapiens = species: Homo sapiens; conditions: Compound concentration 10.0 uM
[17] = target: Mitogen-activated protein kinase kinase kinase kinase 1 (Homo sapiens, UniProt Q92918); assay: HPK1(M4K1LGY1) Takeda global kinase panel
[18] = target: Receptor-interacting serine/threonine-protein kinase 3 (Homo sapiens, UniProt Q9Y572); assay: RIPK3(RIP3IGRI) Takeda global kinase panel
[19] = target: Serine/threonine-protein kinase PAK 4 (Homo sapiens, UniProt O96013); assay: PAK4(PAK4CGY1) Takeda global kinase panel
Serine/threonine-protein kinase PAK 4, sequence (O96013 whole entry): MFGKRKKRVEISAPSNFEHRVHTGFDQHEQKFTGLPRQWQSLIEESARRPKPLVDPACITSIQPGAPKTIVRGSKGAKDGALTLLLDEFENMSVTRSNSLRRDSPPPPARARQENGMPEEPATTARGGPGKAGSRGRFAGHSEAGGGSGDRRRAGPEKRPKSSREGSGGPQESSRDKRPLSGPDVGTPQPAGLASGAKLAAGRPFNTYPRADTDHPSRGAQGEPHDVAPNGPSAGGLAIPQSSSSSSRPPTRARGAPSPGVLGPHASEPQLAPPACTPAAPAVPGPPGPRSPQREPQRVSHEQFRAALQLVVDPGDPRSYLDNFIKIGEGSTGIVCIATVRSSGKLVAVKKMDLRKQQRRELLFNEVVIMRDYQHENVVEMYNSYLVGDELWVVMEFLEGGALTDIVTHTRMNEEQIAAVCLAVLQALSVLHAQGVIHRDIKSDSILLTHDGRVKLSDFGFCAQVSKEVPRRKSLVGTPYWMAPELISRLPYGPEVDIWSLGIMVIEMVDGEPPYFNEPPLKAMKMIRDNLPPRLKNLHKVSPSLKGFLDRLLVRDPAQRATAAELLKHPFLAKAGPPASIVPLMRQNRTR

[20] = target: NUAK family SNF1-like kinase 2 (Homo sapiens, UniProt Q9H093); assay: NuaK2(NUA2LHY1) Takeda global kinase panel
[21] = target: Macrophage colony-stimulating factor 1 receptor (Homo sapiens, UniProt P07333); assay: FmS [CSFR(CSF1LGC1)] Takeda global kinase panel
[22] = target: Tyrosine-protein kinase FRK (Homo sapiens, UniProt P42685); assay: FRK(FRK1LGF1) Takeda global kinase panel
[23] = target: Homeodomain-interacting protein kinase 2 (Homo sapiens, UniProt Q9H2X6); assay: HIPK2(HIP2LGY1) Takeda global kinase panel
Homeodomain-interacting protein kinase 2, sequence (Q9H2X6 whole entry): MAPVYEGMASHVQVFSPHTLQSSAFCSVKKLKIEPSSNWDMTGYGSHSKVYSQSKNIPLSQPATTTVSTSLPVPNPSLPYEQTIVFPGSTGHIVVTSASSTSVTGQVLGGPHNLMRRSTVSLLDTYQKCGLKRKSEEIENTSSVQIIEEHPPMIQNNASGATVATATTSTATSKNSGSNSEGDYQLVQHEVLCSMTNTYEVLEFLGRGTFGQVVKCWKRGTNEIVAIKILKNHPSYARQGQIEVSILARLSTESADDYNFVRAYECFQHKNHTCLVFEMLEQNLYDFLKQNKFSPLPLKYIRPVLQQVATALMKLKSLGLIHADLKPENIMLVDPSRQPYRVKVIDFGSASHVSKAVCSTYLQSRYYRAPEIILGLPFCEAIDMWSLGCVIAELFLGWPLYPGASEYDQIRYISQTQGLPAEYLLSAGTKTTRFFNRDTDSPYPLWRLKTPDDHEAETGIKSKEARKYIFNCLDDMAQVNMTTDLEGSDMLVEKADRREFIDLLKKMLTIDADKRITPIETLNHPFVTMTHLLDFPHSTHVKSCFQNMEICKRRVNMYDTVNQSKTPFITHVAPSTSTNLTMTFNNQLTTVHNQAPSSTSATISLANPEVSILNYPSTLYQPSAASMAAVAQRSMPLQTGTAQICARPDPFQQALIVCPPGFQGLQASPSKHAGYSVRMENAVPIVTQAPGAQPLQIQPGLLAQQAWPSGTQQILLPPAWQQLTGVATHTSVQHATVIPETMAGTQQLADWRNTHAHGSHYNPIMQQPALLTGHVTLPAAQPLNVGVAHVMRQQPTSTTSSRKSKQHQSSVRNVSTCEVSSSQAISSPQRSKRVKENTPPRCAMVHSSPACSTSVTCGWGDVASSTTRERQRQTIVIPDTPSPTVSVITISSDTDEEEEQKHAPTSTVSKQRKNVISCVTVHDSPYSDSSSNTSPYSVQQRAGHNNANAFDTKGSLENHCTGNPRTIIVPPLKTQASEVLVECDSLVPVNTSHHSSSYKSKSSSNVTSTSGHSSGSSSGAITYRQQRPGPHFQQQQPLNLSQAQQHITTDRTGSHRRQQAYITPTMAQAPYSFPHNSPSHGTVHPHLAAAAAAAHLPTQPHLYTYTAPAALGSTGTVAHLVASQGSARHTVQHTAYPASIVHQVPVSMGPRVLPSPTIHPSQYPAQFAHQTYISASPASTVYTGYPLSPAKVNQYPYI

[24] = target: Serine/threonine-protein kinase 24 (Homo sapiens, UniProt Q9Y6E0); assay: MST3(ST24LGC1) Takeda global kinase panel
[25] = target: Vascular endothelial growth factor receptor 2 (Homo sapiens, UniProt P35968); assay: KDR(KDR1CGY1) Takeda global kinase panel
[26] = target: Cannabinoid receptor 1 (Homo sapiens) (UniProt P21554); assay: Inhibition of Cannabinoid CB1 at compound concentration of 10.0 uM in the Eurofins-Panlabs radioligand binding assay (Eurofins_assay_217050); set-up: ligand concentration 2 nM; conditions: Compound concentration 10.0 uM
[27] = target: Cyclin-dependent kinase 12 (Homo sapiens, UniProt Q9NYV4); assay: CRK7(CD12PHS1) Takeda global kinase panel
Ephrin type-B receptor 2 = Ephrin type-B receptor 2 (Homo sapiens, UniProt P29323); assay: EphB2(EPB2LGY1) Takeda global kinase panel
[28] = target: B1 bradykinin receptor (Homo sapiens) (UniProt P46663); conditions: Compound concentration 10.0 uM
B1 bradykinin receptor (Homo sapiens), sequence (P46663 whole entry): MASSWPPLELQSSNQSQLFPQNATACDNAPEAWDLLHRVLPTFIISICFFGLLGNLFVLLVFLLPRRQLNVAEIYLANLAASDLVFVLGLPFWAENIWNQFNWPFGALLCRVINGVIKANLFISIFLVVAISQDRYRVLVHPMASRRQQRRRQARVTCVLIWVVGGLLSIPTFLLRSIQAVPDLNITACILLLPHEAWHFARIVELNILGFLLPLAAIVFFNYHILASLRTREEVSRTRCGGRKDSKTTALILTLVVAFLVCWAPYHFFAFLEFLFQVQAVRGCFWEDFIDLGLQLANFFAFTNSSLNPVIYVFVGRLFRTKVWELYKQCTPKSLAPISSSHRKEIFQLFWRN

[29] = target: Serine/threonine-protein kinase Chk1 (Homo sapiens, UniProt O14757); assay: CHK1(CHE1CGP1) Takeda global kinase panel
[30] = target: Serine/threonine-protein kinase TAO2 (Homo sapiens, UniProt Q9UL54); assay: TAO2(TAO2LGF1) Takeda global kinase panel
[31] = target: Epidermal growth factor receptor (Homo sapiens, UniProt P00533); assay: Inhibition of Epidermal Growth Factor (EGF) at 10 µM in the Eurofins-Panlabs radioligand binding assay (Eurofins_assay_225510); conditions: Compound concentration 10.0 uM
[32] = target: Dual specificity protein kinase CLK4 (Homo sapiens, UniProt Q9HAZ1); assay: CLK4(CLK4IGF1) Takeda global kinase panel
Ephrin type-B receptor 3 = Ephrin type-B receptor 3 (Homo sapiens, UniProt P54753); assay: EphB3(EPB3LGRJ) Takeda global kinase panel
[33] = target: Mitotic checkpoint serine/threonine-protein kinase BUB1 (Homo sapiens, UniProt O43683); assay: Bub1(BUB1LGRL) Takeda global kinase panel
[34] = target: Serine/threonine-protein kinase 32B (Homo sapiens, UniProt Q9NY57); assay: YANK2(S32BLGY2) Takeda global kinase panel
Serine/threonine-protein kinase 32B, sequence (Q9NY57 whole entry): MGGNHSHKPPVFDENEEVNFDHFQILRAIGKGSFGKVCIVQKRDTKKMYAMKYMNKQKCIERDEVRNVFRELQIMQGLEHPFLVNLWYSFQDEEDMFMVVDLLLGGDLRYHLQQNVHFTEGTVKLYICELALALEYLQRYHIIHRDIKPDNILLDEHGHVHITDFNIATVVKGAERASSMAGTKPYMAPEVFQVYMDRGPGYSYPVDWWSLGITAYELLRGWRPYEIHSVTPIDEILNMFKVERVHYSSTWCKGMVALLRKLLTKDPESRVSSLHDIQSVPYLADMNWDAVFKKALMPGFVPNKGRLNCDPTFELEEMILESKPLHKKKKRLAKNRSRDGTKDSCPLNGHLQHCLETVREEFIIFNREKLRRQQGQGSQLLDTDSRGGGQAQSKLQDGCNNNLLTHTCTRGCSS

[35] = target: Serine/threonine-protein kinase TNNI3K (Homo sapiens, UniProt Q59H18); assay: HH498(TNNILGY1) Takeda global kinase panel
[36] = target: Purinergic P2Y (Rattus norvegicus) (UniProt O35811+Q9EPX4+P49651+Q63371+P41232+O35881+Q6GUG4); assay: Inhibition of Purinergic P2Y at compound concentration of 10.0 uM in the Eurofins-Panlabs radioligand binding assay (Eurofins_assay_268820); type: protein assay; set-up: ligand concentration 0.1 nM; conditions: Compound concentration 10.0 uM
Wee1-like protein kinase = Wee1-like protein kinase (Homo sapiens, UniProt P30291); assay: Wee1(WEE1LGF1) Takeda global kinase panel
[37] = target: PAS domain-containing serine/threonine-protein kinase (Homo sapiens, UniProt Q96RG2); assay: PASK(PASKPHY1) Takeda global kinase panel
[38] = target: Mixed lineage kinase domain-like protein (Homo sapiens, UniProt Q8NB16); assay: MLKL(MLKLPHY1) Takeda global kinase panel
[39] = target: Testis-specific serine/threonine-protein kinase 1 (Homo sapiens, UniProt Q9BXA7); assay: TSSK1(TS1BLGP1) Takeda global kinase panel
Testis-specific serine/threonine-protein kinase 1, sequence (Q9BXA7 whole entry): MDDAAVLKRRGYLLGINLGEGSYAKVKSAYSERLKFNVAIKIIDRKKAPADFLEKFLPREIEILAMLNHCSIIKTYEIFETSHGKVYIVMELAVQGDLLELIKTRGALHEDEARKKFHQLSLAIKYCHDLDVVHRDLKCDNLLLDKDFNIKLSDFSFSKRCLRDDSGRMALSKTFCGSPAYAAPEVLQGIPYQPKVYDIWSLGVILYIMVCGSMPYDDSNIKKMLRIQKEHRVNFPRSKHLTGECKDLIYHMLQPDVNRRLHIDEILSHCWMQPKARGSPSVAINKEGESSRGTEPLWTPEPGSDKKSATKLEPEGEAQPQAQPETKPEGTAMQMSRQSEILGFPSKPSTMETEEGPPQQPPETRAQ

Work on `CN1C(=O)[C@@H](N2CCc3cn(Cc4ccccc4)nc3C2=O)COc2ccccc21` [TP-030-1] yielded an IC50 (Activin receptor type-1) of 1000 nM, an IC50 [1] of 1000 nM and an IC50 [2] of 1000 nM. For the same compound, the IC50 [3] was 1000 nM, the IC50 [4] was 1000 nM and the IC50 [5] was 1000 nM. For the same compound, the IC50 [6] was 1000 nM, the IC50 [7] was 1000 nM and the inhibition [8] was 4%. The IC50 [9] was 1000 nM, the IC50 [10] was 1000 nM and the IC50 [11] was 1000 nM. It also gave an inhibition (Rattus norvegicus) of 24%, an IC50 [12] of 1000 nM and an IC50 [13] of 1000 nM. It also gave an IC50 [14] of 1000 nM, an IC50 [15] of 1000 nM and an IC50 [16] of 1000 nM. The inhibition (Homo sapiens) was 21%, the IC50 [17] was 1000 nM and the IC50 [18] was 1000 nM. For the same compound, the IC50 [19] was 1000 nM, the IC50 [20] was 1000 nM and the IC50 [21] was 1000 nM. The IC50 [22] was 1000 nM, the IC50 [23] was 1000 nM and the IC50 [24] was 1000 nM. It also gave an IC50 [25] of 1000 nM, an inhibition [26] of 5% and an IC50 [27] of 1000 nM. For the same compound, the IC50 (Ephrin type-B receptor 2) was 1000 nM, the inhibition [28] was 2% and the IC50 [29] was 1000 nM. The IC50 [30] was 1000 nM, the inhibition [31] was -3% and the IC50 [32] was 1000 nM. For the same compound, the IC50 (Ephrin type-B receptor 3) was 1000 nM, the IC50 [33] was 1000 nM and the IC50 [34] was 1000 nM. The IC50 [35] was 1000 nM, the inhibition [36] was -5% and the IC50 (Wee1-like protein kinase) was 1000 nM. It also gave an IC50 [37] of 1000 nM, an IC50 [38] of 1000 nM and an IC50 [39] of 1000 nM.
`CN1C(=O)[C@@H](N2CCc3cn(CC4CCS(=O)(=O)CC4)nc3C2=O)COc2ccccc21` [TP-030n] gave an IC50 (Activin receptor type-1) of 1000 nM, an IC50 [1] of 1000 nM and an IC50 [2] of 1000 nM. It also gave an IC50 [3] of 1000 nM, an IC50 [4] of 1000 nM and an IC50 [5] of 1000 nM. For the same compound, the IC50 [6] was 1000 nM, the IC50 [7] was 1000 nM and the inhibition [8] was -5%. The IC50 [9] was 1000 nM, the IC50 [10] was 1000 nM and the IC50 [11] was 1000 nM. It also gave an inhibition (Rattus norvegicus) of 21%, an IC50 [12] of 1000 nM and an IC50 [13] of 1000 nM. It also gave an IC50 [14] of 1000 nM, an IC50 [15] of 1000 nM and an IC50 [16] of 1000 nM. The inhibition (Homo sapiens) was 2%, the IC50 [17] was 1000 nM and the IC50 [18] was 1000 nM. The IC50 [19] was 1000 nM, the IC50 [20] was 1000 nM and the IC50 [21] was 1000 nM. The IC50 [22] was 1000 nM, the IC50 [23] was 1000 nM and the IC50 [24] was 1000 nM. It also gave an IC50 [25] of 1000 nM, an inhibition [26] of -5% and an IC50 [27] of 1000 nM. It also gave an IC50 (Ephrin type-B receptor 2) of 1000 nM, an inhibition [28] of 9% and an IC50 [29] of 1000 nM. It also gave an IC50 [30] of 1000 nM, an inhibition [31] of 4% and an IC50 [32] of 1000 nM. For the same compound, the IC50 (Ephrin type-B receptor 3) was 1000 nM, the IC50 [33] was 1000 nM and the IC50 [34] was 1000 nM. For the same compound, the IC50 [35] was 1000 nM, the inhibition [36] was 8% and the IC50 (Wee1-like protein kinase) was 1000 nM. It also gave an IC50 [37] of 1000 nM, an IC50 [38] of 1000 nM and an IC50 [39] of 1000 nM.
